Measurements: publication PMC11468294, “Peptide Amphiphiles as Biodegradable Adjuvants for Efficient Retroviral Gene Delivery” (Advanced Healthcare Materials, 2023)
Where a SMILES comes first, the peptide text is derived from it. The star is where a group is joined. Palmitoyl = CCCCCCCCCCCCCCCC(=O)*

Assays:
[1] = test system: HIV-1 infection of TZM-bl cells; experiment: HIV-1 infection assay (β-galactosidase luminescence reporter); format: cell-based; conditions: infectivity enhancing if n-fold at 1.3 µM larger than 2
Outline: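 TZM-bl cells (10000 per well) were seeded one day before infection. Peptide nanofibril solution was mixed 1:1 (v/v) with HIV-1 (1:500 dilution) for 10 min before inoculation. Infection was read as β-galactosidase luminescence, in technical triplicates across three independent experiments.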

[2] = test system: GALV-RV transduction of Jurkat cells; experiment: γ-Retroviral infection assay of Jurkat cells (GFP+ cells by flow cytometry); format: cell-based; conditions: three days after transduction, increasing peptide concentration, performed once
Description: γ‐Retroviral Infection Assay of Jurkat cells: 50000 Jurkat cells were seeded in 180 µl supplemented RPMI. The cells were inoculated with 20 µl PNF solution 1:1 (v/v) mixed with virus (1:3.2 dilution) after an incubation time of 10 min. The effect of peptide fibrils on retroviral transduction of Jurkat cells was analyzed 3 days post infection by determining the percentage of GFP + cells by flow cytometry. All assays were conducted as described before.^[ [20] ^]

[3] = test system: GALV-RV transduction of CD4+ T cells; experiment: γ-Retroviral transduction assay of CD4+ T cells; format: cell-based, Human; conditions: GALV-RV, 0.26, 1.3, 6.5 µM; GFP+ cells after 3 days; performed once
Description: (§1) γ‐Retroviral transduction Assay CD4+ T cells: Human CD4+ T cells were isolated from a Buffy coat using RosetteSep Human CD4+ Enrichment Cocktail ([…] Technologies) according to manufacturer's protocol. Isolated T cells were activated using Dynabeads Human T‐Activator CD3/CD28 (GibcoTM) according to manufacturer's protocol in presence of 10 ng mL^−1 IL‐2 (Miltenyi Biotec) for three days. After 3 days the magnetic Dynabeads were removed using a magnet and T cells were cultured in presence of 9 ng mL^−1 IL‐7 (Miltenyi Biotec) and 10 ng mL^−1 IL‐15 (Miltenyi Biotec). After 1 day 5 × 10^5 T cells were transduced with GALV‐γ‐RV in absence and presence of PA1, PA2, EF‐C (0.26, 1.3 and 6.5 µM) and Vectofusin−1 (10 µg mL^−1; Miltenyi Biotec), or RetroNectin (20 µg mL^−1; Takara Bio). The concentration of the transduction enhancers corresponds to the concentration on cells and in the case for RetroNectin it corresponds to the concentration that was used to precoat the 24‐well plate. The 24‐well plate was coated with RetroNectin and incubated overnight at 4°C. Wells were blocked with PBS containing 2% BSA for 30 min and washed twice with PBS. […] After 3 days GFP+ T cells were analyzed by flow cytometry. Viability was determined using LIVE/DEAD Fixable Aqua Dead Cell Stain Kit (ThermoFisher Scientific) according to manufacturer's protocol. […]

CD4+ T cells [4] = experiment: Confocal microscopy degradation study with CD4+ T cells; format: in vitro ADME, Human; conditions: 1 µg peptide (5 µg mL-1) added to 250,000 cells, 37°C, 30 min vs 3 d; Proteostat stain
Description: Confocal laser scanning microscopy and degradation study with PA1‐3 and CD4+ T cells: The degradation of the peptide assemblies on CD4+ T cells was determined by analyzing fluorescence microscopy images. To this end, 4 µL of the preassembled peptide fibrils EF‐C, PA1 and PA2 (1 mg mL^−1, 1 d in PBS) were mixed with 4 µL of Proteostat (Enzo Life Science, 1 µL stock in 99 µL PBS) and incubated for 15 min. 2 µL of the stained fibrils were added to 198 µL preactivated and nucleus stained (Hoechst 33 342) CD4+ T cells (200 µL, 0.25 × 10^6) resulting in a final 5 µg mL^−1concentration of the peptide. After incubation for 30 min at 37°C the cells were washed with 3x with PBS and incubated in medium (supplemented RPMI containing IL‐15 and 7). Microscopy was conducted on a Zeiss LSM 710 confocal microscope with 20x and 63x objective and laser excitation wavelengths of 405 nm (Hoechst) and 561 nm (Proteostat). The measurements were performed after 30 min and 3 d of incubation at 37°C without any washing step in between. Control experiments to analyze changes of fibril aggregation were conducted analogously without the presence of cells. The evaluation of aggregate size and number was conducted by analyzing Proteostat stained aggregates via the 3D objects counter function of ImageJ 1.53f51 for 5 individual measurements (area 708.5 µm × 708.5 µm) of three individually repeated experiments.

Jurkat cells = experiment: CellTiter-Glo cell viability, Jurkat cells; format: cell-based; conditions: increasing peptide concentrations, 3 days, biological triplicate
Description: Cell Viability with TZM‐bl and Jurkat cells: The cell viability after addition of peptides to TZM‐bl cells and Jurkat was studied via the CellTiter‐Glo assay. To this end, 20000 cells TZM‐bl or 50000 Jurkat cells were incubated with serial diluted peptides. After 3 days the supernatant was removed and 100 µL CellTiter‐Glo Reagent 1:1 diluted in PBS was added. After 10 min 50 µL was transferred to white microplate and luminescence was recorded by Orion microplate luminometer.

CD4+ T cells [5] = format: cell-based, Human; conditions: 0.26, 1.3, 6.5 µM, 3 days; LIVE/DEAD Fixable Aqua stain
Description: as §1, with “Bio).” for “Bio). The concentration of the transduction enhancers corresponds to the concentration on cells and in the case for RetroNectin it corresponds to the concentration that was used to precoat the 24‐well plate. The 24‐well plate was coated with RetroNectin and incubated overnight at 4°C. Wells were blocked with PBS containing 2% BSA for 30 min and washed twice with PBS.”
Figure S7 Viability of CD4+ T cells. […] Dead cells were initially eliminated by gating on viability dye-negative cells (SSC-A vs. Fixable Aqua Fluorescence) and afterwards for singlets (FSC-H vs. FSC-A). GFP+ cells were measured using the FITC channel. […]

Row | Compound | infectivity enhancement of HIV-1 (in words) [1] | transduction enhancement of Jurkat cells (GFP+ cells, in words) [2] | transduction efficacy in primary CD4+ T cells (in words) [3] | degradation of aggregates by CD4+ T cells (in words) (CD4+ T cells [4]) | viability of Jurkat cells (Jurkat cells) | viability of CD4+ T cells (CD4+ T cells [5])
1 | CCCCCCCCCCCCCCCC(=O)N[C@@H](Cc1ccccc1)C(=O)N[C@@H](CCC(N)=O)C(=O)N[C@@H](Cc1ccccc1)C(=O)N[C@@H](CCCCN)C(=O)N[C@@H](Cc1ccccc1)C(=O)N[C@@H](CCCCN)C(=O)N[C@@H](CS)C(N)=O [PA2] (Palmitoyl-FQFKFKC-NH2) | strong infectivity enhancement of HIV‐1 in the range of EF‐C | strong transduction enhancement similar to EF‐C | in the range of commercially available gold‐standard enhancers RetroNectin and Vectofusin‐1 | not degraded as efficiently | did not reduce the viability | did not reduce the viability
2 | C16-VVVAAAKKK-NH2 [PA1] | strong infectivity enhancement of HIV‐1 in the range of EF‐C | strong transduction enhancement similar to EF‐C | in the range of commercially available gold‐standard enhancers RetroNectin and Vectofusin‐1 | almost all small aggregates of PA1 are degraded by CD4+ T cells | did not reduce the viability | did not reduce the viability
